Entries after “also recorded” stand apart in the source; their conditions may differ. Peptide text beside a SMILES is read from it. * marks the point of attachment. Cbz = O=C(OCc1ccccc1)*; CH2F = FC*
Experiments:
SIPS BEC = assay: Capillary morphogenesis in 3-D collagen gels by H2O2 stress-induced premature senescence (SIPS) BEC; assay type: cell-based, human
Procedure: The 3-D system has been described in detail by Davis et al. (J. Cell Sci. 114:917-930, 2001). Here, the system was used to assay the responsiveness of AD BEC and SIPS BEC to angiogenic stimulation. Briefly, 10^6 MBEC/ml were suspended within 3-D collagen matrices at 25 μl per well in the serum-free culture medium 199 containing VEGF (40 ng/ml) and bFGF (40 ng/ml) in 5% CO2 at 37° C. The cells were fixed with 3% glutaraldehyde in phosphate buffered saline. The sections were stained with hematoxylin/eosin and Hoechst 33342. The formation of intracellular vacuoles (stage I), tubules (stage II), and multicellular tubes and networks (stage III) were determined at 4 hr to 16 hr and 24 hr, respectively. The number of apoptotic cells were determined between 4 hr and 24 hr using double TUNEL/Hoechst staining. At least 200 cells were evaluated from an individual well. […] was quantified at 200 X magnification by counting four fields derived from triplicate wells. Subconfluent BEC cultures (34 days after subculture) were treated with H2O2 by adding it to the culture medium for 2 hr. To induce senescence, sublethal doses of H2O2 were determined and selected. […] H2O2-treated cells were subcultured and analyzed after 1, 2, 3, 4, 5, 6, 24, 48, 72, 96 and 120 hr for expression of different proteins involved in the cell cycle regulation and apoptosis. […]

BEC = assay: H2O2 model of stress-induced premature senescence in young human BEC; assay type: cell-based
Procedure: Subconfluent BEC cultures (34 days after subculture) were treated with H2O2 by adding it to the culture medium for 2 hr. To induce senescence, sublethal doses of H2O2 were determined and selected. After treatment, cells were washed with PBS (37° C.) before harvesting, subculturing or incubating with a fresh medium or 3-D collagen gels. H2O2-treated cells were subcultured and analyzed after 1, 2, 3, 4, 5, 6, 24, 48, 72, 96 and 120 hr for expression of different proteins involved in the cell cycle regulation and apoptosis. Cells in 60 mm dishes were lysed in SDS sample buffer directly. For Western blot analysis, proteins were separated by SDS-PAGE and transferred to PVDF membrane followed by incubation with different primary antibodies (see antibodies for.Western blot analysis). SIPS BEC were also prepared for microarray analysis on U95A chips as described above.

AD BEC [1] = assay: Tube formation in 2-D collagen matrigels, AD BEC; assay type: cell-based, human; details: 10 μM
Procedure: AD or age-matched control (AMC) BEC (2×10^4 cells/well) were plated in 2-D collagen matrigels (growth factors per BD Biosciences, Bedford, Mass.) and treated with 100 nM APC or vehicle (−APC). Total tube length was determined at 24 hr (FIG. 6A). Mean±s.e., n=30 to 40 assays per group from four AD and three AMC cases. AD or AMC BEC were treated with 100 nM APC, 100 nM boiled (B) APC, 100 nM serine mutant (M) APC, or vehicle (−APC) for 24 hr. Total tube length was determined at 24 hr (FIG. 6B). Mean±s.e., n=10 assays per group from one AD and one AMC case. % TUNEL-positive BEC at 4 hr during AD-mediated or AMC-mediated capillary morphogenesis in the presence of 100 nM APC or vehicle (−APC) was calculated (FIG. 6C). Mean±s.e., n=20 assays per group from two AD and two AMC cases. % Caspase-3-positive BEC at 4 hr of brain capillary morphogenesis in AD or AMC treated with 100 nM APC or vehicle (−APC) was calculated (FIG. 6D). Mean±s.e., n=20 assays per group from two AD and two AMC cases. AD BEC (3×10^4) cells were assayed for migration in a modified Boyden chamber in the presence of vehicle (−APC), 100 nM APC, anti-APC C3 monoclonal antibody (200 μg/ml), or anti-APC+APC after 6 hr of incubation (FIG. 6E). Mean±s.e., n=6 assays per group from two AD cases. […]

AMC BEC = assay: Tube formation in 2-D collagen matrigels, age-matched control BEC; assay type: cell-based, human; details: 10 μM
Procedure: In 3D collagen gels (as described in FIG. 1), BEC that reached greater than 90% replicative senescence (RS) or were exposed to H2O2 (SIPS) formed an insignificant number of tubes (FIGS. 11A-11B, bar=50 μm). Total tube length—control BEC (arbitrarily taken as 100%) were compared to RS and SIPS BEC (FIG. 11C). The effect of SB202190 (SB, 10 μM for 1 hr) on SIPS-induced aberrant angiogenesis. Mean±s.e., n=9 assays per group from three different cases/group. In 2D collagen matrigels (growth factors per BD Biosciences, Bedford, Mass.), SB202190 (SB, 10 μM) increased the number of tubes in early passage AD BEC (FIGS. 11D-11E, bar=50 μm). SB202190 (SB, 10 μM) increases total tube length in both AMC and AD BEC (FIG. 11F). Mean±s.e., n=6-9 assays per group from two AMC and three AD cases.
In the 2-D system, collagen matrigels of matrix composition containing a supplement of growth factors were used according to manufacturer's instructions (BD Biosciences, Bedford, Mass.). In the 2-D matrix system, 2×10^4 cells/well were plated.
(§1) ZVAD-fmk (50 μM, Sigma), p38 MAPK antagonists including SB SB202190 (SB, 10 μM), and plasma-derived activated protein C (APC, prepared by Dr. J. H. Griffin's laboratory, 5-100 nM) were used.

AD BEC [2] = assay: Brain capillary morphogenesis in 3-D collagen matrices (VEGF/bFGF) mediated by AD BEC; assay type: cell-based, human; details: zVAD-fmk 50 μM, 24 hr, VEGF and bFGF 40 ng/ml
Procedure: (§2) The 3-D system has been described in detail by Davis et al. (J. Cell Sci. 114:917-930, 2001). Here, the system was used to assay the responsiveness of AD BEC and SIPS BEC to angiogenic stimulation. Briefly, 10^6 MBEC/ml were suspended within 3-D collagen matrices at 25 μl per well in the serum-free culture medium 199 containing VEGF (40 ng/ml) and bFGF (40 ng/ml) in 5% CO2 at 37° C. The cells were fixed with 3% glutaraldehyde in phosphate buffered saline. The sections were stained with hematoxylin/eosin and Hoechst 33342. The formation of intracellular vacuoles (stage I), tubules (stage II), and multicellular tubes and networks (stage III) were determined at 4 hr to 16 hr and 24 hr, respectively. The number of apoptotic cells were determined between 4 hr and 24 hr using double TUNEL/Hoechst staining. At least 200 cells were evaluated from an individual well. […] was quantified at 200 X magnification by counting four fields derived from triplicate wells.
as §1

caspase 3 = assay: Western blot of activated caspase-3 in AD BEC lysates during capillary morphogenesis; assay type: cell-based, human; details: zVAD-fmk 50 μM, 24 hr
Procedure: Cell lysates were prepared from subconfluent BEC cultures, BEC at different stages of capillary morphogenesis or BEC exposed to SIPS (see below H2O2 model of SIPS). Antibodies for Western blot analysis included caspase 3, rabbit anti-human polyclonal, 1:100 (0.5 mg/ml, BD PharMingen); p53, mouse anti-human monoclonal, 1:200 (0.1 mg/ml, Oncogene); p16, mouse anti-human monoclonal, 1:250 (0.5 mg/ml, BD ParMingen); p21, mouse anti-human, 1:200 (0.4 mg/ml, Oncogene); Rb (Santa Cruz), p27 (Santa Cruz), fibronectin (Santa Cruz), PAI-1 (Santa Cruz) or phosphorylated p38 MAPK; gax, rabbit polyclonal against C-terminal region of the rat gax protein (amino acids SDHSSEHAHL), 1:500 (7 mg/ml, provided by Dr Kenneth Walsh); and β-actin, goat anti-human polyclonal, 1:2,500 (0.2 mg/ml, Santa Cruz Biotechnology). The secondary antibody was HRP-conjugated and peroxidase activity was detected with enhanced chemiluminescence detection kit (ECL, Pierce). The relative abundance of the primary antigen was determined by scanning densitometry using β-actin as an internal control.

AD BEC [3] = assay: Apoptosis (TUNEL, caspase-3 positive cells) during AD BEC-mediated capillary morphogenesis; assay type: cell-based, human
Procedure: as §2
Staining with APO-BRDU kit was performed according to manufacturer's instructions (Phoenix Flow Systems).

Compound: OO [H2O2]
- number of tubes formed by H2O2-treated (SIPS) BEC (SIPS BEC; compared to untreated normal control cells): form an insignificant number of tubes
- senescent phenotype (G1 arrest, flattened morphology, SA-β-gal) (BEC; 300 μM for 2 hr, within 48 hr): developed a senescent phenotype
- BEC apoptosis (BEC; concentrations higher than 300 μM, not shown): resulted in BEC apoptosis

Compound: Oc1ccc(-c2nc(-c3ccncc3)c(-c3ccc(F)cc3)[nH]2)cc1 [SB202190]
- number of tubes in early passage AD BEC (AD BEC [1]): completely restored; also recorded: increased
- total tube length, AD BEC (AD BEC [1]): increases
- total tube length, AMC BEC (AMC BEC): increases
- augmentation of total tube length in the SIPS model (SIPS BEC; preincubation 10 μM for 1 hr, 3D collagen gels): ~5 fold

Compound: COC(=O)C[C@H](NC(=O)[C@H](C)NC(=O)[C@@H](NC(=O)OCc1ccccc1)C(C)C)C(=O)CF [zVAD-fmk] (Cbz-Val-Ala-Asp(OMe)-CH2F)
- number of tubes (AD BEC [2]): restored
- total tube length (AD BEC [2]): restored
- number of tubes (AD BEC [2]; listed as zVAD): restoration
- total tube length (AD BEC [2]; listed as zVAD): restoration
- levels of activated form of caspase-3 (caspase 3): preventing the formation of the active form of caspase 3; also recorded: reduced
- apoptosis in AD BEC (AD BEC [3]; during AD BEC-mediated capillary morphogenesis): prevents apoptosis
- number of apoptotic AD BEC by TUNEL staining (AD BEC [3]; zVAD, data not shown): decreased

From patent US20050170359A1, “Treatment of vascular dysfunction and alzheimer's disease” (priority 2002, published 2005)
